In patent publication US20040265877A1, “Methods for detecting presence of cellular constituents” (Marantech Holding, LLC, priority 2003, published 2004):

Assays:
HeLa cells = test: Binding/staining of HeLa cervical carcinoma cells; format: cell-based, human
Protocol: (§1) This example is directed to a reagent kit to determine the presence of cancer cells in cervical specimens (i.e., Pap (Papanicolaou test) smears).
Next, HeLa cells were mixed with epithelial (cheek) cells to create a simulated Pap smear.
(§2) TST solution (soluble TST) was prepared by adding 5 mg of TST to 1 ml of dd H2O. Inadvertent “grounding” of the TST was avoided. The solution was mixed gently and thoroughly by pipetting up and down. Formation of air bubbles and excessive agitation were avoided. The solution was centrifuged for 15 seconds at 1,000 rpm to settle excess TST. Soluble TST was added to a sample slide (picking up and depositing undissolved TST was avoided). The slide was incubated at room temperature for 10 minutes, followed by rinsing by either dipping the slide five times in a beaker of distilled water, or using the dual pipette method to remove excess TST. Dual pipette method: Using two pipettes, water was slowly added to the slide at one corner while the solution was simultaneously drawn up into the other pipette from a distal corner of the sample. Without intending to be bound by theory, the idea was to create somewhat of a flow across the sample, to gently wash it. The sample was quickly and gently blotted once or twice with a cloth wipe.
The enhancement solution was then prepared. One drop each of the 2-part enhancer was added to a microfuge tube. The mixture was vortexed for 40 seconds, and then immediately added it to the sample (an optional very brief centrifuge step at low speed in order to settle the liquid at the bottom of the tube was performed prior to addition to the sample). The sample was incubated at room temperature for 20-30 minutes. Optionally, the progress of the reaction under was observed using a light microscope. The slide was rinsed by either dipping the slide 5 times into a beaker of distilled water, or by the dual pipette method described above. The sample was quickly and gently blotted once or twice with a cloth wipe, and the sample was allowed to dry. The results were observed either under a light microscope or with the naked eye.

athlete's foot = settings: single case, solution of 100 ppm of the composition, topical; cited from earlier work
tumor cells (HeLa) = settings: FIG. 7
Description: (§3) A non-spectrophotometric characterization technique, i.e., scanning electron microscopy (SEM) was used with the procedure set forth in Example VIII.

[1] = system: non-tumor cells (MCF-10A); settings: FIGS. 10A-10B
Description: as §3

toenail fungus = settings: single case, 25% suspension of the composition, topical; cited from earlier work
[2] = system: Herpes virus infected cells; settings: Pap smear samples, FIG. 4
Protocol: as §2
The enhancement solution was then prepared. One drop each of the 2-part enhancer was added to a microfuge tube. The mixture was vortexed for 40 seconds, and then immediately added it to the sample (an optional very brief centrifuge step at low speed in order to settle the liquid at the bottom of the tube was performed prior to addition to the sample). […]

tNOX [3] = molecular target: tNOX (Homo sapiens, UniProt Q16206); settings: BT-20 mammary cancer cell line
tNOX (Homo sapiens, UniProt Q16206), sequence (Q16206 whole entry): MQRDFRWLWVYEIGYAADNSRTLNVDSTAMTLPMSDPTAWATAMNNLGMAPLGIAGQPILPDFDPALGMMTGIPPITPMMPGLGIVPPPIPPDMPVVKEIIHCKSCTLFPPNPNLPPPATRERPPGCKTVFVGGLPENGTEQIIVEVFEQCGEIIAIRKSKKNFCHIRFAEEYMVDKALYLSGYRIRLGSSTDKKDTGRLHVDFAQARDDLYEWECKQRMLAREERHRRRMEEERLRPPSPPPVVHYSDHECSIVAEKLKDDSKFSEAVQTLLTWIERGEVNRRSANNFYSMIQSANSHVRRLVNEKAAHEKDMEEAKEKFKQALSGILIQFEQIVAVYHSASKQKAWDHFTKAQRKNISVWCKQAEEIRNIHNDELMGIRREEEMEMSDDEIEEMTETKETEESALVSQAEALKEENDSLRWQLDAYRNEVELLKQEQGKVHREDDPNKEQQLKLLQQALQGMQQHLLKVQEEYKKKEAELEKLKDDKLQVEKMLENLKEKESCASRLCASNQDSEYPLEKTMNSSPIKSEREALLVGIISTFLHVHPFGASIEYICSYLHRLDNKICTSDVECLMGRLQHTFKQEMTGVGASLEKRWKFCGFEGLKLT
Protocol: (§4) NADH oxidase (NOX) activity was determined (as the disappearance of it measured spectrophotometrically at 340 nm) in a reaction mixture (25 mM Tris-MES buffer at pH 7.2, KCN 1 mM) to inhibit low levels of mitochondrial oxidase activity, and 150 micromoles […] at 37° C. with stirring. Activity was measured with pairs of Hitachi U3210 Spectrophotometers. Assays were initiated by the addition of NOX and tetrasilver tetroxide (Ag4O4) for one minute and were repeated on the same sample every 1.5 minutes over a 45-minute period. A mM absorption coefficient of 6.2 was used to determine specific activity.
(§5) Protein disulfide-thiol interchange activity associated with tNOX was measured using the dipyridyldithio substrate dithiodipyridine (DTDP). The assay was performed in 50 mM Tris-MES buffer (pH 7.0) and was initiated by the addition of 0.5 micromoles DTDP in 5 microliters DMSO as a control. The reaction was monitored by tracking an increase in absorption at 340 nm using DTDP, specific activity being calculated using a mM absorption coefficient of 6.2. The spectrophotometric assays were performed simultaneously with the two spectrophotometers and DMSO controls.

tNOX [4] = settings: HeLa cells; concentration of one part per million (PPM)
Protocol: as §4, §5

[5] = single intravenous injection at about 40 ppm of human blood; no reported loss of liver function; cited from earlier work
CNOX [6] = molecular target: CNOX (Homo sapiens, UniProt Q8TC92); settings: MCF-10A human mammary epithelia; elevated concentrations far above 1 PPM
CNOX (Homo sapiens, UniProt Q8TC92), sequence (Q8TC92 whole entry): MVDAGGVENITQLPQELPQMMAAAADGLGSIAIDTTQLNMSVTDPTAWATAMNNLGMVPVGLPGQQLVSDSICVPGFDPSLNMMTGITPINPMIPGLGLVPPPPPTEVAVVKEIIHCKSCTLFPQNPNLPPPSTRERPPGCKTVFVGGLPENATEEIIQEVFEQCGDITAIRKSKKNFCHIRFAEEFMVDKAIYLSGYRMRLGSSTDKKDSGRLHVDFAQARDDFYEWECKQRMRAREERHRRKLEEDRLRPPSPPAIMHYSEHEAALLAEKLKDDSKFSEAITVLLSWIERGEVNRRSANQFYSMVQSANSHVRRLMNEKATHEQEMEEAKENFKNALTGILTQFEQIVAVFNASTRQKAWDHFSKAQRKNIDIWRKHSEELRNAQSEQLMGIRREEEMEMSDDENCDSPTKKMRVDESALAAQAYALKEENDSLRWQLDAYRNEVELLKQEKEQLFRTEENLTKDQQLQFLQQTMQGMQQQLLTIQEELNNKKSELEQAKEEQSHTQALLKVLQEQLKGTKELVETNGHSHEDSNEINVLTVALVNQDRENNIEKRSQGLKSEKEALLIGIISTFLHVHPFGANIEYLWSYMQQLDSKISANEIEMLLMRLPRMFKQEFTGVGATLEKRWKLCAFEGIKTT
Protocol: as §4, §5
(§6) The procedure was repeated with plasma protein derived from soybean seeds containing CNOX growth regulator.

CNOX [7] = settings: soybean seed plasma protein; elevated concentrations far above 1 PPM
Protocol: as §4, §5, §6

normal cells = system: normal cells
Protocol: as §1, §2
The enhancement solution was then prepared. One drop each of the 2-part enhancer was added to a microfuge tube. […]

wild type mouse liver = settings: after computer photography enhancement, 40x
Protocol: (§7) Frozen liver slices were obtained, and the two step process described below for non-aqueous testing was performed. The results were viewed with a microscope and computer enhanced. Frozen liver slices from a wild type mouse (non-cancerous) were compared with frozen liver slices from a transgenic mouse expressing tNOX on its liver cells.
(§8) TST solution was prepared by adding 5 mg of TST to 1 ml of dd H2O. Inadvertent “grounding” of the TST was avoided. The solution was mixed gently and thoroughly by pipetting up and down. Air bubbles and excessive agitation were avoided. The solution was centrifuged for 15 seconds at 1,000 rpm to settle excess TST.
(§9) Soluble TST was added to a sample section, while avoiding undissolved TST. The sample was incubated at room temperature for 10 minutes. Excess TST was removed by dipping the section several times in a beaker of distilled water. The sample was quickly and gently blotted once or twice with a cloth wipe.
(§10) The enhancement solution was prepared by placing one drop each of the two-part enhancer into a microfuge tube. The mixture was vortexed for 40 seconds, and immediately added to the sample. The solution was optionally centrifuged briefly at low speed in order to settle the liquid at the bottom of the tube prior to addition to the sample. The sample was incubated at room temperature for 20-30 minutes.

[8] = system: liver cells expressing tNOX; settings: after computer photography enhancement, 40x
Protocol: as §7, §8, §9, §10

[9] = system: gynecological yeast infection; settings: 10 ppm silver tetroxide and 40 ppm sodium persulfate; cited from earlier work

[O]=[Fe].[O]=[Fe][O][Fe]=[O] [Fe3O4, triiron tetroxide]
staining of HeLa cells (HeLa cells; Fe3O4, FIGS. 9A-9C): selectively stained

[Ag+].[Ag+].[Ag+].[Ag+].[O-2].[O-2].[O-2].[O-2] [tetrasilver tetroxide]
outcome of infection (athlete's foot): cure
binding by SEM (tumor cells (HeLa)): actual binding
binding by SEM [1]: non-binding
outcome of infection (toenail fungus): cure
binding to HeLa cultured cervical cell lines (HeLa cells): bound covalently
nuclear staining (HeLa cells; Pap smear samples, FIG. 4): black staining of nuclei
distinguishing HeLa cells from epithelial (cheek) cells (HeLa cells; simulated Pap smear, HeLa mixed with cheek cells): selective binding with and darkening of the cytoplasmic membrane of the HeLa cells
staining of infected cells [2]: brown staining
tNOX activity inhibition (tNOX [3]): the same as in Example VIfI
tNOX activity inhibition (tNOX [4]): inhibited completely
liver adverse effect [5]: hepatomegaly
effect on CNOX (CNOX [6]): not affected at all
effect on CNOX (CNOX [7]): not affected at all
binding to normal cells (normal cells): without binding
nuclear staining (normal cells; Pap smear samples, FIG. 4): no nuclear staining
staining of liver slices (wild type mouse liver): did not
staining of liver slices [8]: black nuclei and black borders
outcome of infection [9]: curing
